Tests used:
Type in all cases: functional
HeLa [1] = assay: Induction of cell cycle arrest in human HeLa cells assessed as S phase cells at 12.3 uM incubated for 24 hrs by RNAse A/PI staining based flow cytometric analysis (reference value: 20.5%)
HeLa [2] = assay: Induction of cell cycle arrest in human HeLa cells assessed as 4N cells at 12.3 uM incubated for 12 hrs by RNAse A/PI staining based flow cytometric analysis (reference value: 5.37%)
HeLa [3] = assay: Induction of cell cycle arrest in human HeLa cells assessed as 4N cells at 12.3 uM incubated for 24 hrs by RNAse A/PI staining based flow cytometric analysis (reference value: 5.37%)
HeLa [4] = assay: Induction of apoptosis in human HeLa cells assessed as viable cells at 19.6 uM incubated for 48 hrs by annexinV-FITC/propidium iodide staining based flow cytometry analysis (reference value: 99.8%); settings: read-out: Activity
HeLa [5] = assay: Induction of cell cycle arrest in human HeLa cells assessed as 4N cells at 6.2 uM incubated for 48 hrs by RNAse A/PI staining based flow cytometric analysis (reference value: 5.37%)
HeLa [6] = assay: Induction of cell cycle arrest in human HeLa cells assessed as 2N cells at 6.2 uM incubated for 48 hrs by RNAse A/PI staining based flow cytometric analysis (reference value: 29.9%)
HeLa [7] = assay: Induction of apoptosis in human HeLa cells assessed as late apoptotic cells at 26.1 uM incubated for 48 hrs by annexinV-FITC/propidium iodide staining based flow cytometry analysis (reference value: 0.1%)
HeLa [8] = assay: Induction of cell cycle arrest in human HeLa cells assessed as 4N cells at 24.6 uM incubated for 48 hrs by RNAse A/PI staining based flow cytometric analysis (reference value: 5.37%)
HeLa [9] = assay: Induction of cell cycle arrest in human HeLa cells assessed as 2N cells at 12.3 uM incubated for 24 hrs by RNAse A/PI staining based flow cytometric analysis (reference value: 29.9%)
HeLa [10] = assay: Induction of cell cycle arrest in human HeLa cells assessed as 4N cells at 12.3 uM incubated for 48 hrs by RNAse A/PI staining based flow cytometric analysis (reference value: 5.37%)
HeLa [11] = assay: Induction of cell cycle arrest in human HeLa cells assessed as S phase cells at 12.3 uM incubated for 48 hrs by RNAse A/PI staining based flow cytometric analysis (reference value: 20.5%)
HeLa [12] = assay: Induction of mitochondrial membrane potential loss in human HeLa cells assessed as decrease in fluorescence intensity […] at 24.6 uM by Rhodamine 123 staining based flow cytometric analysis (reference value: 58.0%); set-up: scale not given: the % may be the effect or the level left
HeLa [13] = assay: Induction of apoptosis in human HeLa cells assessed as late apoptotic cells at 13.2 uM incubated for 48 hrs by annexinV-FITC/propidium iodide staining based flow cytometry analysis (reference value: 0.1%)
HeLa [14] = assay: Induction of apoptosis in human HeLa cells assessed as necrotic cells at 19.6 uM incubated for 48 hrs by annexinV-FITC/propidium iodide staining based flow cytometry analysis (reference value: 0.0%)
HeLa [15] = assay: Induction of apoptosis in human HeLa cells assessed as necrotic cells at 13.2 uM incubated for 48 hrs by annexinV-FITC/propidium iodide staining based flow cytometry analysis (reference value: 0.0%)
HeLa [16] = assay: Induction of apoptosis in human HeLa cells assessed as necrotic cells at 26.1 uM incubated for 48 hrs by annexinV-FITC/propidium iodide staining based flow cytometry analysis (reference value: 0.0%)
HeLa [17] = assay: Induction of cell cycle arrest in human HeLa cells assessed as accumulation at G2/M phase at 12.3 uM by RNAse A/PI staining based flow cytometric analysis relative to control
HeLa [18] = assay: Induction of cell cycle arrest in human HeLa cells assessed as >4N cells at 12.3 uM incubated for 48 hrs by RNAse A/PI staining based flow cytometric analysis (reference value: 2.61%)
HeLa [19] = assay: Induction of mitochondrial membrane potential loss in human HeLa cells assessed as decrease in fluorescence intensity […] at 6.2 uM by Rhodamine 123 staining based flow cytometric analysis (reference value: 58.0%); set-up: scale not given: the % may be the effect or the level left
HeLa [20] = assay: Induction of cell cycle arrest in human HeLa cells assessed as >4N cells at 6.2 uM incubated for 48 hrs by RNAse A/PI staining based flow cytometric analysis (reference value: 2.61%)
HeLa [21] = assay: Induction of cell cycle arrest in human HeLa cells assessed as 2N cells at 12.3 uM incubated for 12 hrs by RNAse A/PI staining based flow cytometric analysis (reference value: 29.9%)
HeLa [22] = assay: Induction of cell cycle arrest in human HeLa cells assessed as >4N cells at 12.3 uM incubated for 12 hrs by RNAse A/PI staining based flow cytometric analysis (reference value: 2.61%)
HeLa [23] = assay: Induction of mitochondrial membrane potential loss in human HeLa cells assessed as decrease in fluorescence intensity […] at 12.3 uM by Rhodamine 123 staining based flow cytometric analysis (reference value: 58.0%); set-up: scale not given: the % may be the effect or the level left
HeLa [24] = assay: Induction of cell cycle arrest in human HeLa cells assessed as accumulation at G2/M phase at 6.2 uM by RNAse A/PI staining based flow cytometric analysis relative to control
HeLa [25] = assay: Induction of cell cycle arrest in human HeLa cells assessed as S phase cells at 24.6 uM incubated for 48 hrs by RNAse A/PI staining based flow cytometric analysis (reference value: 20.5%)
HeLa [26] = assay: Induction of cell cycle arrest in human HeLa cells assessed as >4N cells at 12.3 uM incubated for 24 hrs by RNAse A/PI staining based flow cytometric analysis (reference value: 2.61%)
HeLa [27] = assay: Induction of cell cycle arrest in human HeLa cells assessed as 2N cells at 24.6 uM incubated for 48 hrs by RNAse A/PI staining based flow cytometric analysis (reference value: 29.9%)
HeLa [28] = assay: Induction of apoptosis in human HeLa cells assessed as early apoptotic cells at 26.1 uM incubated for 48 hrs by annexinV-FITC/propidium iodide staining based flow cytometry analysis (reference value: 0.1%)
HeLa [29] = assay: Induction of cell cycle arrest in human HeLa cells assessed as S phase cells at 12.3 uM incubated for 12 hrs by RNAse A/PI staining based flow cytometric analysis (reference value: 20.5%)
HeLa [30] = assay: Induction of cell cycle arrest in human HeLa cells assessed as <2N cells at 12.3 uM incubated for 48 hrs by RNAse A/PI staining based flow cytometric analysis (reference value: 41.6%)
HeLa [31] = assay: Induction of cell cycle arrest in human HeLa cells assessed as <2N cells at 6.2 uM incubated for 48 hrs by RNAse A/PI staining based flow cytometric analysis (reference value: 41.6%)
HeLa [32] = assay: Induction of cell cycle arrest in human HeLa cells assessed as accumulation at G2/M phase at 24.6 uM by RNAse A/PI staining based flow cytometric analysis relative to control

**Q.** Which results are given for `CC[C@H](C)[C@@H]1NC(=O)[C@H](CC(C)C)NC(=O)[C@@H]2CSCN2C(=O)[C@@H]2CSCN2C(=O)CN2C(=O)c3ccccc3[C@@]2(O)CN(Cc2ccccc2)C1=O`?
**A.** Activity (HeLa [1]): 10.2%; Activity (HeLa [2]): 16.8%; Activity (HeLa [3]): 25.1%; viability at 19.6 µM (HeLa [4]): 68.6%; Activity (HeLa [5]): 17%; Activity (HeLa [6]): 24.9%; Activity (HeLa [7]): 6.4%; Activity (HeLa [8]): 47.5%; Activity (HeLa [9]): 20.6%; Activity (HeLa [10]): 35.7%; Activity (HeLa [11]): 21.3%; Activity (HeLa [12]): 19.4%; Activity (HeLa [13]): 7.3%; Activity (HeLa [14]): 1.3%; Activity (HeLa [15]): 2.6%; Activity (HeLa [16]): 0.9%; Activity (HeLa [17]): 35.7%; Activity (HeLa [18]): 0%; Activity (HeLa [19]): 52.6%; Activity (HeLa [20]): 9.53%; Activity (HeLa [21]): 28.8%; Activity (HeLa [22]): 9.83%; Activity (HeLa [23]): 32.3%; Activity (HeLa [24]): 17%; Activity (HeLa [25]): 5.72%; Activity (HeLa [26]): 11%; Activity (HeLa [27]): 28.8%; Activity (HeLa [28]): 34.6%; Activity (HeLa [29]): 11.5%; Activity (HeLa [30]): 14.9%; Activity (HeLa [31]): 37.5%; Activity (HeLa [32]): 47.5%

Source: ChEMBL document CHEMBL5120939, “Novel Isoindolinone-Based Analogs of the Natural Cyclic Peptide Fenestin A: Synthesis and Antitumor Activity” (ACS Med Chem Lett, 2022)
